Assay results from patent publication US11542240B2, “STK19 inhibitors for treatment of cancer” (TRUSTEES OF BOSTON UNIVERSITY, priority 2018, dated 2023).
Like-named read-outs stand apart in the source and are kept apart here.

Columns and labels:
Assay in all cases: biochemical
Type in all cases: binding
[1] = target: panel of 468 diverse kinases (Homo sapiens, UniProt P42680); details: TEC; 1000 nM; read-out: Percent Control
[2] = target: panel of 468 diverse kinases (Homo sapiens, UniProt P78362); details: SRPK2; 1000 nM; read-out: Percent Control
[3] = target: panel of 468 diverse kinases (Homo sapiens, UniProt P33981); details: TTK; 1000 nM; read-out: Percent Control
[4] = target: panel of 468 diverse kinases (Homo sapiens, UniProt Q15746); details: MYLK; 1000 nM; read-out: Percent Control
[5] = target: panel of 468 diverse kinases (Homo sapiens, UniProt O75914); details: PAK3; 1000 nM; read-out: Percent Control
[6] = target: panel of 468 diverse kinases (Homo sapiens, UniProt Q92630); details: DYRK2; 1000 nM; read-out: Percent Control
[7] = target: panel of 468 diverse kinases (Homo sapiens, UniProt Q8TD19); details: NEK9; 1000 nM; read-out: Percent Control
[8] = target: panel of 468 diverse kinases (Homo sapiens, UniProt Q15303); details: ERBB4; 1000 nM; read-out: Percent Control
Sequence of panel of 468 diverse kinases (Homo sapiens, UniProt Q15303) (Q15303 26-1308 limits assumed): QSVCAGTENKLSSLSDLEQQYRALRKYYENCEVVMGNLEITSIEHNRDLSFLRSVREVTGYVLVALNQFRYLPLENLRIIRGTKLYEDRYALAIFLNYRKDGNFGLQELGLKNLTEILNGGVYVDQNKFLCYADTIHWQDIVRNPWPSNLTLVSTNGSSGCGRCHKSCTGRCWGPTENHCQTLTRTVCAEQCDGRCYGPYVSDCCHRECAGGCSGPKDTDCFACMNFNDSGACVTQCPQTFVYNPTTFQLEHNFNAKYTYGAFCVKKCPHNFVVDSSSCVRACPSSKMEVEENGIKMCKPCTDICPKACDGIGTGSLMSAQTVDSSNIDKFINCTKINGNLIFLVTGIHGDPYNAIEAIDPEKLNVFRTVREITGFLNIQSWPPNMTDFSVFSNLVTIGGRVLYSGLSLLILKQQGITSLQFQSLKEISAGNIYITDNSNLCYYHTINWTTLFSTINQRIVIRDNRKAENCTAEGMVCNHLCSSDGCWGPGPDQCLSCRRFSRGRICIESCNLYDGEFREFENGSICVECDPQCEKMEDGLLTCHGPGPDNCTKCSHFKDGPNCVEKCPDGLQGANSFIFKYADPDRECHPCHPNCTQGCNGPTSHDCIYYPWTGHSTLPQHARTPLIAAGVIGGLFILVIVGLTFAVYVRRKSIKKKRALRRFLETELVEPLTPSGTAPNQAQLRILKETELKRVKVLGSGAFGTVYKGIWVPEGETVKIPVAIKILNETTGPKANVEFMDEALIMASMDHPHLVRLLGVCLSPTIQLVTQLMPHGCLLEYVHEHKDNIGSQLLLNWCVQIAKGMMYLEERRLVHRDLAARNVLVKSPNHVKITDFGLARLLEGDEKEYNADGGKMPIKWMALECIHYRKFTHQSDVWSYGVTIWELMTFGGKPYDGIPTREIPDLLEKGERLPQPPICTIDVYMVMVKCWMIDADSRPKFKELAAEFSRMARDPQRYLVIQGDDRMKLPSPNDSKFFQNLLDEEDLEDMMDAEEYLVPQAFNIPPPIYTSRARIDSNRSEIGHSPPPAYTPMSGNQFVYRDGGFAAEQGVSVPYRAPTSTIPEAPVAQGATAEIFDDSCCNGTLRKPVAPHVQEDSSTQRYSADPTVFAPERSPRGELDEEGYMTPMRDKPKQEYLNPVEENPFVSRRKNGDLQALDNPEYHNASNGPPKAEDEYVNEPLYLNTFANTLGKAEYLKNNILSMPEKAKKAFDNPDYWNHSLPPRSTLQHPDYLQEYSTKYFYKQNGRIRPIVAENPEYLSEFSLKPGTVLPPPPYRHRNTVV

[9] = target: panel of 468 diverse kinases (Homo sapiens, UniProt P28482); details: ERK2; 1000 nM; read-out: Percent Control
Sequence of panel of 468 diverse kinases (Homo sapiens, UniProt P28482) (P28482 2-360 limits assumed): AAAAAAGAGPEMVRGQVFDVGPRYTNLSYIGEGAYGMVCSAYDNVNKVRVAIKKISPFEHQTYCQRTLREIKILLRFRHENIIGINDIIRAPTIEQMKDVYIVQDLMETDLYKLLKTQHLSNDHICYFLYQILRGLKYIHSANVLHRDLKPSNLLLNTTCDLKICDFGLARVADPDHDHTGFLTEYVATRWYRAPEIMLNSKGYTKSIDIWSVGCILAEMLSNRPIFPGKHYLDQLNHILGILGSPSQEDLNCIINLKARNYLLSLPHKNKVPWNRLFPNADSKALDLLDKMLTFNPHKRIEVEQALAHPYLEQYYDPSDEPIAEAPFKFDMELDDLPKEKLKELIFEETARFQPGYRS

[10] = target: panel of 468 diverse kinases (Homo sapiens, UniProt P17948); details: FLT1; 1000 nM; read-out: Percent Control
[11] = target: panel of 468 diverse kinases (Homo sapiens, UniProt Q15759); details: p38-beta; 1000 nM; read-out: Percent Control
[12] = target: panel of 468 diverse kinases (Homo sapiens, UniProt Q8IVH8); details: MAP4K3; 1000 nM; read-out: Percent Control
[13] = target: panel of 468 diverse kinases (Homo sapiens, UniProt Q8IY84); details: NIM1; 1000 nM; read-out: Percent Control
[14] = target: panel of 468 diverse kinases (Homo sapiens, UniProt Q9P286); details: PAK7; 1000 nM; read-out: Percent Control
[15] = target: panel of 468 diverse kinases (Homo sapiens, UniProt P00519); details: 1000 nM, read-out: Percent Control
[16] = target: panel of 468 diverse kinases (Homo sapiens, UniProt Q15569); details: TESK1; 1000 nM; read-out: Percent Control
[17] = target: panel of 468 diverse kinases (Homo sapiens, UniProt Q05397); details: FAK; 1000 nM; read-out: Percent Control
Sequence of panel of 468 diverse kinases (Homo sapiens, UniProt Q05397) (Q05397 2-1052 limits assumed): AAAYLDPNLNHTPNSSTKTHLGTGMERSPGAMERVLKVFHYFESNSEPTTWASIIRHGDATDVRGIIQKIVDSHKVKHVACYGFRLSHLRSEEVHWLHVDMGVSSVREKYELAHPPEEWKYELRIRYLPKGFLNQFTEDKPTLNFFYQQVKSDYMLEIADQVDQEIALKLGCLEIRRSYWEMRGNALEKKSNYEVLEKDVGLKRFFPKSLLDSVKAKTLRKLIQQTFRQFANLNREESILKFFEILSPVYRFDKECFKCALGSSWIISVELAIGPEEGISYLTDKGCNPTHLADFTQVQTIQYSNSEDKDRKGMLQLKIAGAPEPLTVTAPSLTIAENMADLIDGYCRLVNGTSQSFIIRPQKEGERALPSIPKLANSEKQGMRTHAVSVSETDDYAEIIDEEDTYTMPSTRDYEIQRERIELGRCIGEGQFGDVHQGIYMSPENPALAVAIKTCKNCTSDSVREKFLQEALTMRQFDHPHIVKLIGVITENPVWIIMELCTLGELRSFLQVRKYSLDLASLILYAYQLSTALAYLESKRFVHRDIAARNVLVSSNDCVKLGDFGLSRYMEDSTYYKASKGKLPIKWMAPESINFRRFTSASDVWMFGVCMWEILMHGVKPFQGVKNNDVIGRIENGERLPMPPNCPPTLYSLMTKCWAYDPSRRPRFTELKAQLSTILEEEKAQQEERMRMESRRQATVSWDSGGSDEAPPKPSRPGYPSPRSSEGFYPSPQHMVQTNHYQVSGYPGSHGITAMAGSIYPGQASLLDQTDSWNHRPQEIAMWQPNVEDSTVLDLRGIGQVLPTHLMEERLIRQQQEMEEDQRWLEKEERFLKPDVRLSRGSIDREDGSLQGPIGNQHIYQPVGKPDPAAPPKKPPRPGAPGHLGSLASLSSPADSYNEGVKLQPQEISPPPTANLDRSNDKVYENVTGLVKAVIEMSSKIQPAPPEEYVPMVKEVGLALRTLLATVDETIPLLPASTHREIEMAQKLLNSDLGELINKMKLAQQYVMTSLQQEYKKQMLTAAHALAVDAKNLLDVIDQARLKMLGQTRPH

[18] = target: panel of 468 diverse kinases (Homo sapiens, UniProt Q08345); details: DDR1; 1000 nM; read-out: Percent Control
[19] = target: panel of 468 diverse kinases (Homo sapiens, UniProt Q14012); details: CAMK1; 1000 nM; read-out: Percent Control
[20] = target: panel of 468 diverse kinases (Homo sapiens, UniProt Q9NRP7); details: STK36; 1000 nM; read-out: Percent Control
[21] = target: panel of 468 diverse kinases (Homo sapiens, UniProt P53355); details: DAPK1; 1000 nM; read-out: Percent Control
[22] = target: panel of 468 diverse kinases (Homo sapiens, UniProt P51617); details: IRAK1; 1000 nM; read-out: Percent Control
[23] = target: panel of 468 diverse kinases (Homo sapiens, UniProt Q16659); details: ERK3; 1000 nM; read-out: Percent Control
[24] = target: panel of 468 diverse kinases (Homo sapiens, UniProt P19525); details: PRKR; 1000 nM; read-out: Percent Control
Sequence of panel of 468 diverse kinases (Homo sapiens, UniProt P19525) (P19525 2-551 limits assumed): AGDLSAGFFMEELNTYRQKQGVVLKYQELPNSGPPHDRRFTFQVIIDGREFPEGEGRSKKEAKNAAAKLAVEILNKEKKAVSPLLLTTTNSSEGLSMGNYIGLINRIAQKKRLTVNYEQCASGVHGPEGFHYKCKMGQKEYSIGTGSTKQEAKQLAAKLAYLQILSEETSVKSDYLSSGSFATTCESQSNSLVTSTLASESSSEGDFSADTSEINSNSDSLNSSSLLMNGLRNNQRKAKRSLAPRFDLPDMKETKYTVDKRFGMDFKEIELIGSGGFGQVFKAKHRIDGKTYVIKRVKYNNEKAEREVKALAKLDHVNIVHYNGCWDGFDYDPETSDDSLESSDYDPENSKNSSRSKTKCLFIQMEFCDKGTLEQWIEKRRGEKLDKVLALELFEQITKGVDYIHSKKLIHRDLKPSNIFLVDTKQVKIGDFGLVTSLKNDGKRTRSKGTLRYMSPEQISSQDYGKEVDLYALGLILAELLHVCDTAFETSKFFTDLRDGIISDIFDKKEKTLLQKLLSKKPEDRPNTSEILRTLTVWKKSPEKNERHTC

[25] = target: panel of 468 diverse kinases (Homo sapiens, UniProt Q16288); details: TRKC; 1000 nM; read-out: Percent Control
[26] = target: panel of 468 diverse kinases (Homo sapiens, UniProt Q8NE63); details: HIPK4; 1000 nM; read-out: Percent Control
[27] = target: panel of 468 diverse kinases (Homo sapiens, UniProt Q13470); details: TNK1; 1000 nM; read-out: Percent Control
[28] = target: panel of 468 diverse kinases (Homo sapiens, UniProt P25098); details: GRK2; 1000 nM; read-out: Percent Control
[29] = target: panel of 468 diverse kinases (Homo sapiens, UniProt P11309); details: PIM1; 1000 nM; read-out: Percent Control
[30] = target: panel of 468 diverse kinases (Homo sapiens, UniProt Q00526); details: CDK3; 1000 nM; read-out: Percent Control
[31] = target: panel of 468 diverse kinases (Homo sapiens, UniProt Q9UM73, L1196M); details: ALK(L1196M); 1000 nM; read-out: Percent Control
Sequence of panel of 468 diverse kinases (Homo sapiens, UniProt Q9UM73, L1196M) (Q9UM73 19-1620 L1196M limits assumed): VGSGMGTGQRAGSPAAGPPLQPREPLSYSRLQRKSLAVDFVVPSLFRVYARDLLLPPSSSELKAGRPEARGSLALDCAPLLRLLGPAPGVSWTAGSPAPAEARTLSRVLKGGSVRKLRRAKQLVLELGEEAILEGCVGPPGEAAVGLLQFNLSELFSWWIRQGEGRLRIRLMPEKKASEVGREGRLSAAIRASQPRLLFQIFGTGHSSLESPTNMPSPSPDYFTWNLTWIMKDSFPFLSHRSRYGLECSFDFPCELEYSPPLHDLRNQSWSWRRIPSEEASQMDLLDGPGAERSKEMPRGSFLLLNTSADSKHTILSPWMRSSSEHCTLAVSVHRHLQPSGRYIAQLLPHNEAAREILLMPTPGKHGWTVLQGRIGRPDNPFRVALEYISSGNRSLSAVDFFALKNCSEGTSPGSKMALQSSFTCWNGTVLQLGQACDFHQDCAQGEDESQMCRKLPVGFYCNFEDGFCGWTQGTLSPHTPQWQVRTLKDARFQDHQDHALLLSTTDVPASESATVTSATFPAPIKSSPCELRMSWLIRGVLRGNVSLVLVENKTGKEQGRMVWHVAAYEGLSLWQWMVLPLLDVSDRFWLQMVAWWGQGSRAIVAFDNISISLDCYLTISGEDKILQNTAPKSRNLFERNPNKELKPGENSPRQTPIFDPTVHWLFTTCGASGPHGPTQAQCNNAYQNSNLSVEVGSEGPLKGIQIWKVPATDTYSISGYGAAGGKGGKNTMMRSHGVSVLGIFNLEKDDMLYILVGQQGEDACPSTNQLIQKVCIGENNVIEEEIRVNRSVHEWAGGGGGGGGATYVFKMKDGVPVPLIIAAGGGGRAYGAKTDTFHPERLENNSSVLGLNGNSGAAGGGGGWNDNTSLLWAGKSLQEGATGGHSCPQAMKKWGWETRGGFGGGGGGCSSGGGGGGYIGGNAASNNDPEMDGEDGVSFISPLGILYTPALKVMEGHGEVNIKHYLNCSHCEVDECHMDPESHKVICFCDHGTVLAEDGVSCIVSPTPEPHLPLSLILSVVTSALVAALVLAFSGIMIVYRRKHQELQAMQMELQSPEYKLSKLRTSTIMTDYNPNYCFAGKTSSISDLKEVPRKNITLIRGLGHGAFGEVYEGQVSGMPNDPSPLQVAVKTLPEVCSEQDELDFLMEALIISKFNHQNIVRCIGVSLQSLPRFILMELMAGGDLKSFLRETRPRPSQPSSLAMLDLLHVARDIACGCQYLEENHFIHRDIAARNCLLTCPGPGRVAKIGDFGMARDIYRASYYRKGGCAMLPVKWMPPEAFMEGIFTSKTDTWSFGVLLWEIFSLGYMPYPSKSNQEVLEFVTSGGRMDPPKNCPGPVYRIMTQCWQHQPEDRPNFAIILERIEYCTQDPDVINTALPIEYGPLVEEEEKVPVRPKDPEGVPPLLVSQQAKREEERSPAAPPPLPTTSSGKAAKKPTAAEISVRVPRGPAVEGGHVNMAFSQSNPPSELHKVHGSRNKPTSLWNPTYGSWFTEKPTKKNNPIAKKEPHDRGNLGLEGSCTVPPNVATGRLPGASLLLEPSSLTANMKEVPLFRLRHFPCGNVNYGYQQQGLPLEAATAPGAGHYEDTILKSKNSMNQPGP

## COc1cc2nc(NC3CC3)nc(NC3CCN(C(C)C)CC3)c2cc1OC [Formula IV]
[1]
  remaining activity at 1 µM: 100%
[2]
  remaining activity at 1 µM: 80%
[3]
  remaining activity at 1 µM: 85%
[4]
  remaining activity at 1 µM: 49%
[5]
  remaining activity at 1 µM: 71%
[6]
  remaining activity at 1 µM: 84%
[7]
  remaining activity at 1 µM: 83%
[8]
  remaining activity at 1 µM: 96%
[9]
  remaining activity at 1 µM: 81%
[10]
  remaining activity at 1 µM: 95%
[11]
  remaining activity at 1 µM: 87%
[12]
  remaining activity at 1 µM: 91%
[13]
  remaining activity at 1 µM: 72%
[14]
  remaining activity at 1 µM: 92%
[15]; ABL1-nonphosphorylated
  remaining activity at 1 µM: 91%
[15]; ABL1-phosphorylated
  remaining activity at 1 µM: 88%
[16]
  remaining activity at 1 µM: 100%
[17]
  remaining activity at 1 µM: 88%
[18]
  remaining activity at 1 µM: 88%
[19]
  remaining activity at 1 µM: 91%
[20]
  remaining activity at 1 µM: 77%
[21]
  remaining activity at 1 µM: 99%
[22]
  remaining activity at 1 µM: 80%
[23]
  remaining activity at 1 µM: 90%
[24]
  remaining activity at 1 µM: 99%
[25]
  remaining activity at 1 µM: 53%
[26]
  remaining activity at 1 µM: 91%
[27]
  remaining activity at 1 µM: 67%
[28]
  remaining activity at 1 µM: 83%
[29]
  remaining activity at 1 µM: 90%
[30]
  remaining activity at 1 µM: 100%
[31]
  remaining activity at 1 µM: 78%
